Assay results as given in patent publication US10233202B2, “Tenofovir monobenzyl ester phosphamide prodrug, preparation method and use thereof” (JIANGSU TASLY DIYI PHARMACEUTICAL CO., LTD., priority 2015, dated 2019).
Where two headings read alike, the source gives them in different places.

Experiments:
[1] = in vitro; assay type: cell-based; conditions: human, HepG2.2.15 cells
Description: The concentration of HBV DNA in the HepG2.2.15 cell supernatant was detected through the real-time fluorescence quantitative PCR (qPCR) method to determine the anti-HBV activity of the compound in the HepG2.2.15 cells, and the effect of the testing compounds to the HepG2.2.15 cell activity was detected through Cell-titer Blue.
(§1) 8.1. Dilution of the compounds: the initial concentration of each compound in the in vitro anti-HBV activity test was 1 μM, with 3-fold serial dilution to 8 concentrations; the initial concentration of each compound in the cytotoxicity test was 100 μM, with 3-fold serial dilution to 8 concentrations; DMSO was used for the dilution of the compound mother liquor. The initial concentrations of the reference compound TDF for the anti-HBV activity test in vitro and the cytotoxicity test were all set at 0.2 μM, with 3-fold serial dilution to 8 concentrations.
8.3. Treatment of the cells in the cell viability test: the HepG2.2.15 cells were plated in the 96-well plate (4×10^4 cells/well), and cultured overnight at 37° C. in 5% CO2. On 2nd day, fresh culture solutions containing compounds of different concentrations were added to the culture wells. See Table 3 for the compound distribution. On 5th day, the used culture solutions in the culture wells were sucked and discarded, and fresh culture solutions containing compounds of different concentrations were added. On 8th day, Cell-titer Blue agent was added to each well, and the microplate reader was used to detect the fluorescence value of each well.
The cell viability percentage was calculated using the following formula: % cell viability=(fluorescence of sample−fluorescence of medium control)/(fluorescence of DMSO control−fluorescence of medium control)[…] 100%
(§2) 9.2 Test method: the test was carried out according to the procedure in example 1.

[2] = tested on: HBV; experiment: Cell based anti-HBV activity test, HBV DNA in HepG2.2.15 cell supernatant by qPCR; conditions: read-out: EC50
Description: as §1
8.2. Anti-HBV activity test in vitro: the HepG2.2.15 cells were plated in the 96-well plate (4×10^4 cells/well), and cultured overnight at 37° C. in 5% CO2. On second day, fresh culture solutions containing compounds of different concentrations were added to the culture wells. See Table 2 for the compound distribution. On 5th day, the used culture solutions in the culture wells were sucked and discarded, and fresh culture solutions containing compounds of different concentrations were added. On 8th day, the supernatant in the culture wells was collected for the extraction of HBV DNA in the supernatant. qPCR test was used to detect the concentration of HBV DNA content in the HepG2.2.15 supernatant.
8.4. Data analysis and calculation of the inhibition percentage and relative cell viability: The inhibition percentage was calculated using the following formula: % Inh.=[(HBV quantity of DMSO control−HBV quantity of sample)/HBV quantity of DMSO control]×100%
9.1 Drugs: the dilution method and concentrations of compound 3, the reference compound (CN201380030061.6, and the compound shown in claim 36 (abbreviation: compound 7), and the isomer thereof) were the same as those in example 1.
as §2

[3] = Stability in the human liver S9; assay type: in vitro ADME; conditions: for CLlint(s9) / half-life at 1 μM / Remaining (T = 60 min): human liver S9, 1 μM
Description: (§3) The following stability test were carried out according to the prior art, and the data of the stability test shown in the table were the residue percentages after the test compounds were incubated for different period of time under the test condition.

[4] = Stability in the simulated intestinal fluid; assay type: in vitro ADME; conditions: 10 μM
Description: as §3

[5] = in vivo; parameters: species or system ICR mice; conditions: mouse, 50 mg/kg
Description: 12 ICR mice (male, body weight 30±5 g, purchased from the Vital River animal center) were randomly divided into 4 groups, 3 for each group, fasted for 12 h before drug administration, with freely drinking during the fasting. […] The dose of the Tenofovir prodrug was 50 mg/kg, and the administration quantity was 10 mL/kg. The sample collection protocols: after administration by gastric gavage, each 0.5 mL of blood was taken from the orbit at 15 min, 30 min, 1 h, and 3 h; the mice were sacrificed, and the liver tissues were taken, washed cleanly, and weighed; normal saline was added to the liver with a proportion of 1:1, homogenized, and stored in the refrigerator at −40° C. for test. Treatment method for the plasma samples: 100 μL of the mouse plasma was taken and placed in a 1.5 mL plastic EP tube, 100 μL solution of internal standard (200 ng/ml theophylline) solution was added, 600 μL acetonitrile was added, vortex shaking for 2 min, centrifuged for 3 min (12500 rpm), the supernatant was taken, purged with nitrogen to dryness, and dissolved again with 100 μL of mobile phase (water:methanol=95:5), and the injection volume was 10 μL. Treatment method for the tissue samples: 200 μL of the mouse tissue samples were taken and placed in a 1.5 mL plastic EP tube, 100 μL solution of internal standard (200 ng/ml theophylline) solution was added, 600 μL acetonitrile was added, vortex shaking for 2 min, centrifuged for 3 min (12500 rpm), the supernatant was taken, purged with nitrogen to dryness, and dissolved again with 100 μL of mobile phase (water:methanol=95:5), and the injection volume was 20μL.

[6] = tested on: HIV-1 IIIB; experiment: In vitro anti-HIV activity test in MT-4 cells infected with HIV-1 IIIB (CellTiter Glo); assay type: cell-based; conditions: Human immunodeficiency virus 1, MT4, 120 h; MT-4 cells infected with HIV-1 IIIB, 5 days; read-out: EC50
Description: 9.1. Dilution and concentrations of the compounds and the reference compound (CN01813161GS-7340, TDF) were the same as those in example 1.
9.2. In vitro anti-HIV activity test: after MT-4 cells were infected with 24 TCID50HIV-1 IIIB/1×10^5 cells (2.4 TCID50/well) at 37° C. for 1 hour, they were plated in the 96-well plate containing the compounds of different concentrations ([…]) and cultured at 37° C. in 5% CO2 for 5 days. CellTiter Glo was used to determine the activity to calculate the EC50 value.
(§4) 9.4. Data analysis and calculation of the inhibition percentage: the activity percentage was calculated using the following formula: Activity (%) =(Raw datacpd−AverageVC)/(AverageCC−AverageVC)*100Cell Viability (%)=Raw datacpd/AverageCC*100

[7] = Stability in the simulated gastric fluid; assay type: in vitro ADME
Description: as §3

[8] = Stability in the human blood; assay type: in vitro ADME; conditions: 2 μM
Description: as §3

[9] = Cell viability test in MT-4 cells (CellTiter Glo); assay type: cell-based; conditions: human
Description: 9.3. Treatment of the cells in the cell viability test: parallel tests were carried out using the same method as that in 9.2, except that the 96-well plate containing the compounds of different concentrations were replaced with the blank 96-well plate, and CellTiter Glo was used to determine the cell viability to calculate the CC50 value.
as §4

[10] = molecular target: hERG K-channel (Homo sapiens, UniProt Q12809); experiment: hERG manual whole-cell patch clamp in CHO cells (cardiotoxicity study); conditions: IC50, hERG current, room temperature
Description: The CHO cells obtained from AVivaBiosciences that could stably express the hERG K-channel were used in the test, and the cells were incubated at 37° C. in 5% CO2 and under constant humidity.
The final concentration of DMSO in the extracellular fluid was not higher than 0.30%.
The whole-cell patch clamp technique was used on the Multiclamp patch-clamp amplifier to test the compound at room temperature, the output signal was digitalized using the DIgiDAta 1440 A/D-D/A plate, and the Pclamp10 software was used for the control of the recording. The minimum sealing resistance was set at 500 MOh/ms, and the minimum specific hERG current was set at 0.4 nA for quality control.
Clampfit (V10.2, Molecular Devices), Excel 2003 and GraphPad Prism 5.0 were used for the data analysis. The calculation formula of the current: I/Icontrol=Bottom+(Top−Bottom)/(1+10^((LogIC50−Log C)*Hillslope

[11] = Cell-titer Blue on 8th day, Table 3
[12] = Hepatitis B virus, HepG2.2.15, HepG2.2.15 cells, HBV DNA in supernatant on 8th day, Table 3
[13] = HepG2.2.15 cells, HBV DNA in supernatant on 8th day, Table 3
[14] = Hepatitis B virus, HepG2.2.15, HepG2.2.15 cells, comparative test, Table 4

Sequence of hERG K-channel (Q12809 whole entry): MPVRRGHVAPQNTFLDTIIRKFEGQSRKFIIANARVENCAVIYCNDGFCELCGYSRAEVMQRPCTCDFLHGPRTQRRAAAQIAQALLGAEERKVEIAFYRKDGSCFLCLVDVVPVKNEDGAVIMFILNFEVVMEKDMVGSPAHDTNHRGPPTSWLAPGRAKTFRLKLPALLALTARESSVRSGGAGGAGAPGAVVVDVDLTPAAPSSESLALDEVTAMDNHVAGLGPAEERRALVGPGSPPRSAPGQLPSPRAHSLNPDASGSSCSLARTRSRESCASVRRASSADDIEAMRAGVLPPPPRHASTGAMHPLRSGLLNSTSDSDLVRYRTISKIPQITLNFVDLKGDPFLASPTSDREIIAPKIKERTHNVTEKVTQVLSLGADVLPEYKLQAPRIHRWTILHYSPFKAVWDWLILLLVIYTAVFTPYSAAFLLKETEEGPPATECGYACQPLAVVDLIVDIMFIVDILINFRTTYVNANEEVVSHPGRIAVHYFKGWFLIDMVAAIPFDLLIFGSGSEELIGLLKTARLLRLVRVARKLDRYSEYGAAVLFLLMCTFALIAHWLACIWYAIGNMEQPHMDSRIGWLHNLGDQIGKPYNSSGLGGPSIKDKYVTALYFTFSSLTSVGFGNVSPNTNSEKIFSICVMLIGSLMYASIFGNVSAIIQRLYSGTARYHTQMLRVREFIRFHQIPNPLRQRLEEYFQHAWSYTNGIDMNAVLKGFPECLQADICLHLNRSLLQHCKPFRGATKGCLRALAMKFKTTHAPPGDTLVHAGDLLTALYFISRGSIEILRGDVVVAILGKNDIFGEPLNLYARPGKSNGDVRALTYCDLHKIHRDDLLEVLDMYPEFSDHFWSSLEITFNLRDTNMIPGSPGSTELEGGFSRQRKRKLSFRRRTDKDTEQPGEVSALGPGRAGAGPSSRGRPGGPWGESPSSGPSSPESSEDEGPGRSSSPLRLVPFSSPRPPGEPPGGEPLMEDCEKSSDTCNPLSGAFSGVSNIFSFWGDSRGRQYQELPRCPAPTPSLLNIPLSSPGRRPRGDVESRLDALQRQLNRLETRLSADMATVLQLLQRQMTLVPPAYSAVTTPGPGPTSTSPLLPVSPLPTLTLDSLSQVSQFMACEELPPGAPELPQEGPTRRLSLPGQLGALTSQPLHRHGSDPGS

CC(C)OC(=O)CN[P@@](=O)(CO[C@H](C)Cn1cnc2c(N)ncnc21)OCc1ccccc1 (single isomer, unassigned) [Compound 1a]
CC50 [1, 11]: > 100 µM | EC50 [2, 12]: > 1 µM

CC(C)OC(=O)CN[P@](=O)(CO[C@H](C)Cn1cnc2c(N)ncnc21)OCc1ccccc1 (single isomer, unassigned) [Compound 1b]
CC50 [1, 11]: > 100 µM | EC50 [2, 13]: 0.29 µM | EC50 [2, 12]: 0.2 to 1 µM

C[C@H](Cn1cnc2c(N)ncnc21)OC[P@](=O)(NCC(=O)OCc1ccccc1)OCc1ccccc1 (single isomer, unassigned) [Compound 5a]
CC50 [1, 11]: > 100 µM | EC50 [2, 13]: 0.214 µM | EC50 [2, 12]: 0.2 to 1 µM

C[C@H](Cn1cnc2c(N)ncnc21)OC[P@@](=O)(NCC(=O)OCc1ccccc1)OCc1ccccc1 (single isomer, unassigned) [Compound 5b]
CC50 [1, 11]: > 100 µM

CCOc1ccc2ccc(=O)oc2c1 [7-Ethoxycumarin]
CLlint(s9) [3]: 8.4 µL/min/mg | half-life at 1 μM [3]: 82.2 min | Remaining (T = 60 min) [3]: 60% | CLlint(s9) ([3]; scaled per kg): 0.00178 L/h/kg

O=c1ccc2ccc(O)cc2o1 [7-Hydroxycoumarin]
Remaining (T = 60 min) [3]: 4% | half-life ([3]; human, s9): 6.6 min

O=C(O)CCCc1ccc(N(CCCl)CCCl)cc1 [Chlorambucil]
% 0 min (residue percentage) [4]: 100% | % 60 min (residue percentage) [4]: 29.36% | % 120 min (residue percentage) [4]: 3.11% | % 360 min (residue percentage) [4]: 0.00% | % 1440 min (residue percentage) [4]: 0.00%

COC(=O)CN[P@@](=O)(CO[C@H](C)Cn1cnc2c(N)ncnc21)OCc1ccccc1 [Compound 2a]
CC50 [1, 11]: > 100 µM

COC(=O)CN[P@](=O)(CO[C@H](C)Cn1cnc2c(N)ncnc21)OCc1ccccc1 [Compound 2b]
CC50 [1, 11]: > 100 µM | EC50 [2, 12]: > 1 µM

CC(C)OC(=O)[C@H](C)NP(=O)(CO[C@H](C)Cn1cnc2c(N)ncnc21)OCc1ccccc1 (some centres unmarked) [Compound 3]
selectivity ratio at 3 h ([5]; male, ICR): 3.61 | concentration at 3 h ([5]; male, ICR, Cliver tissue): 0.375 µM | concentration at 3 h ([5]; male, ICR, Cplasma): 0.104 µM

Cc1ccccc1CO[P@](=O)(CO[C@H](C)Cn1cnc2c(N)ncnc21)N[C@@H](C)C(=O)OC(C)C [Compound 7a]
CC50 ([1]; comparative test, Table 4): > 100 µM | EC50 [2, 14]: > 1 µM

Cc1ccccc1CO[P@@](=O)(CO[C@H](C)Cn1cnc2c(N)ncnc21)N[C@@H](C)C(=O)OC(C)C [Compound 7b]
EC50 [6]: 0.0837 µM | % 0 min (residue percentage) ([7]; 10 μM): 100% | % 60 min (residue percentage) ([7]; 10 μM): 82.76% | % 120 min (residue percentage) ([7]; 10 μM): 51.39% | % 360 min (residue percentage) ([7]; 10 μM): 13.16% | % 1440 min (residue percentage) ([7]; 10 μM): 0.00% | % 0 min (residue percentage) [4]: 100% | % 60 min (residue percentage) [4]: 31.28% | % 120 min (residue percentage) [4]: 8.33% | % 360 min (residue percentage) [4]: 0.09% | % 1440 min (residue percentage) [4]: 0.00% | % 0 min (residue percentage) [8]: 100% | % 10 min (residue percentage) [8]: 93.5% | % 30 min (residue percentage) [8]: 91.6% | % 60 min (residue percentage) [8]: 90.5% | % 120 min (residue percentage) [8]: 90.1% | CC50 at 5 days [9]: 14.7 µM | CLlint(s9) [3]: 147.4 µL/min/mg | half-life at 1 μM [3]: 4.7 min | Remaining (T = 60 min) [3]: 5% | CLlint(s9) ([3]; scaled per kg): 0.03114 L/h/kg | CC50 ([1]; comparative test, Table 4): > 100 µM | EC50 [2, 14]: 0.275 µM | IC50 [10]: > 10 µM

CC1CC(OC(=O)C(O)c2ccccc2)CC(C)(C)N1C (centres unmarked) [Eucatropine]
% 0 min (residue percentage) [8]: 100% | % 10 min (residue percentage) [8]: 54.4% | % 30 min (residue percentage) [8]: 37.0% | % 60 min (residue percentage) [8]: 24.4% | % 120 min (residue percentage) [8]: 10.2%

COc1ccc2[nH]c([S+]([O-])Cc3ncc(C)c(OC)c3C)nc2c1 (centres unmarked) [Omeprazole]
% 0 min (residue percentage) ([7]; 20 μM): 100% | % 60 min (residue percentage) ([7]; 20 μM): 24.34% | % 120 min (residue percentage) ([7]; 20 μM): 9.41% | % 360 min (residue percentage) ([7]; 20 μM): 1.58% | % 1440 min (residue percentage) ([7]; 20 μM): 0.31%

C[C@H](Cn1cnc2c(N)ncnc21)OCP(=O)(O)O [TFV, Tenofovir]
Cliver tissue [5]: 67.251 nmol/mL | Cplasma [5]: 0.075 nmol/mL | Liver tissue selectivity (Cliver tissue/Cplasma) [5]: 896
